Molecules are shown by their SMILES. Some results are limits rather than exact numbers.

The target in this assay is T1, BTK (Homo sapiens, UniProt Q06187).
T1 construct: endogenous in cells; host or cells: Ramos (ATCC CRL-1596)
T1 sequence (Q06187 whole entry): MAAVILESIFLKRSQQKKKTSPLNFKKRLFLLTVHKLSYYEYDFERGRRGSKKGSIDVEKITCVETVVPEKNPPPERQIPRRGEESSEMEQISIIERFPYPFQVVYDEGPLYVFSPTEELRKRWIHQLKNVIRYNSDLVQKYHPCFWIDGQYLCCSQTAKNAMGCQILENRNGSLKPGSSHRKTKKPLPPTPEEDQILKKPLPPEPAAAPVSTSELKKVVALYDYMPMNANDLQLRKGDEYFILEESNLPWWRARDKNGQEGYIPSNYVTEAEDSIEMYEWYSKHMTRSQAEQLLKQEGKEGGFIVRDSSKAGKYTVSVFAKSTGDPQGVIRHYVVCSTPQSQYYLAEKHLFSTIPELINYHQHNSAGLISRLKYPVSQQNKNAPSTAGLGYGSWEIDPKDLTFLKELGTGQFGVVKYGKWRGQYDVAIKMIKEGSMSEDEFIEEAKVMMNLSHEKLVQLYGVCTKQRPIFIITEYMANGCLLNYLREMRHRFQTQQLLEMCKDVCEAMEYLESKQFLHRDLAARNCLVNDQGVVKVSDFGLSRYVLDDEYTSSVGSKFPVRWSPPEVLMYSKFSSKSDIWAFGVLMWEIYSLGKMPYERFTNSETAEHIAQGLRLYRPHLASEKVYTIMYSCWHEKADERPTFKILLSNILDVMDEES
Description: Cellular BTK HTRF Assay (BTK levels in Ramos cells). It is filed as cell-based. The settings on record: Ramos cells, 50,000 cells, incubated four hours at 37° C.; BTK levels by Cisbio Total-BTK HTRF relative to DMSO-treated cells. As to the method:
Ramos (CRL-1596) cells were obtained from American Type Culture Collection and were grown in RPMI-1640 media (ATCC, 30-2001) supplemented with 10% heat-inactivated FBS (Corning Premium Fetal Bovine Serum from Fisher, MT35015CV).
Compounds of the present invention were added to 50,000 Ramos cells in round-bottom 96 well plates with a final DMSO concentration of […] and were incubated at 37° C. 5% CO2 for four hours. BTK levels were determined using Cisbio Total-BTK HTRF ([…] Time-Resolved Fluorescence) kit (63ADK064PEG) according to manufacturer's protocol. Briefly, cells were incubated in 1× supplied lysis buffer for 30 minutes. In an opaque white low volume 96 well plate (Cisbio, 66PL96005), cell lysate was combined with two different specific BTK antibodies, one conjugated with Eu^3+-Cryptate FRET donor and one conjugated with d2 FRET acceptor. Assay controls include wells containing cell lysate with only the Eu^3+-Cryptate FRET donor antibody and wells containing both HTRF antibodies and lysis buffer without cells or control lysate provided by Cisbio. HTRF ratio was calculated as (acceptor signal at 665 nm/donor signal at 620 nm)×10^4. Background HTRF levels were determined from the control well containing the donor, but no acceptor, antibody. Background HTRF levels were subtracted from all samples. Readouts were reported as HTRF levels relative to HTRF levels of DMSO-treated cells. Four-parameter non-linear regressions were performed in GraphPad Prism 7.02 to obtain DC50 values. DC50 values are provided in Table 7, wherein A<1 nM, 1 nM≤B≤10 nM, and 10 nM<C<1 μM.
(TR-FRET usually uses a lanthanide donor and a delayed reading to cut background.)
Regarding `C[C@H]1CN(C(=O)[C@H]2C[C@H](OCCCc3cccc4c3CN(C3CCC(=O)NC3=O)C4=O)C2)CCN1c1ccc(Nc2cc(-c3ccnc(N4CCn5c(cc6c5CC(C)(C)C6)C4=O)c3CO)cn(C)c2=O)nc1` (stereo partly drawn) [Compound 29], the DC50 was in the range of 1 to 10 nM.

For `C[C@H]1CN(C(=O)CN2CCN(CCCc3cccc4c3CN(C3CCC(=O)NC3=O)C4=O)CC2)CCN1c1ccc(Nc2cc(-c3ccnc(N4CCn5c(cc6c5CC(C)(C)C6)C4=O)c3CO)cn(C)c2=O)nc1` (stereo partly drawn) [Compound 30], the DC50 was 1 to 10 nM.

Regarding `C[C@H]1CN(C(=O)[C@H]2CC[C@H](Nc3cccc4c3C(=O)N(C3CCC(=O)NC3=O)C4=O)CC2)CCN1c1ccc(Nc2cc(-c3ccnc(N4CCn5c(cc6c5CC(C)(C)C6)C4=O)c3CO)cn(C)c2=O)nc1` (stereo partly drawn) [Compound 31], the DC50 fell in the range of 1 to 10 nM.

As for `C[C@H]1CN(C(=O)CN2CCN(CCCc3cccc4c3C(=O)N(C3CCC(=O)NC3=O)C4=O)CC2)CCN1c1ccc(Nc2cc(-c3ccnc(N4CCn5c(cc6c5CC(C)(C)C6)C4=O)c3CO)cn(C)c2=O)nc1` (stereo partly drawn) [Compound 32], the DC50 is 1 to 10 nM.

Compound `C[C@H]1CN(C(=O)CCCc2cccc3c2CN(C2CCC(=O)NC2=O)C3=O)CCN1c1ccc(Nc2cc(-c3ccnc(N4CCn5c(cc6c5CC(C)(C)C6)C4=O)c3CO)cn(C)c2=O)nc1` (stereo partly drawn) [Compound 33] had a DC50 of 1 to 10 nM.

`C[C@H]1CN(C(=O)C2CC3(CC(Nc4cccc5c4C(=O)N(C4CCC(=O)NC4=O)C5=O)C3)C2)CCN1c1ccc(Nc2cc(-c3ccnc(N4CCn5c(cc6c5CC(C)(C)C6)C4=O)c3CO)cn(C)c2=O)nc1` (stereo partly drawn) [Compound 34] came in with a DC50 of 1 to 10 nM.

Take `C[C@H]1CN(C(=O)CNc2cccc3c2C(=O)N(C2CCC(=O)NC2=O)C3=O)CCN1c1ccc(Nc2cc(-c3ccnc(N4CCn5c(cc6c5CC(C)(C)C6)C4=O)c3CO)cn(C)c2=O)nc1` (stereo partly drawn) [Compound 35]: the DC50 was in the range of 1 to 10 nM.

`C[C@H]1CN(C(=O)CCNc2cccc3c2C(=O)N(C2CCC(=O)NC2=O)C3=O)CCN1c1ccc(Nc2cc(-c3ccnc(N4CCn5c(cc6c5CC(C)(C)C6)C4=O)c3CO)cn(C)c2=O)nc1` (stereo partly drawn) [Compound 36] displayed a DC50 of 10 to 1000 nM.

For the compound `C[C@H]1CN(C(=O)CCCNc2cccc3c2C(=O)N(C2CCC(=O)NC2=O)C3=O)CCN1c1ccc(Nc2cc(-c3ccnc(N4CCn5c(cc6c5CC(C)(C)C6)C4=O)c3CO)cn(C)c2=O)nc1` (stereo partly drawn) [Compound 37], the DC50 was 1 to 10 nM.

`C[C@H]1CN(C(=O)CCCCc2cccc3c2CN(C2CCC(=O)NC2=O)C3=O)CCN1c1ccc(Nc2cc(-c3ccnc(N4CCn5c(cc6c5CC(C)(C)C6)C4=O)c3CO)cn(C)c2=O)nc1` (stereo partly drawn) [Compound 38] came in with a DC50 of 1 to 10 nM.

Compound `C[C@H]1CN(CCOCCOCCOCCOCCOCCNc2cccc3c2C(=O)N(C2CCC(=O)NC2=O)C3=O)CCN1c1ccc(Nc2cc(-c3ccnc(N4CCn5c(cc6c5CC(C)(C)C6)C4=O)c3CO)cn(C)c2=O)nc1` (stereo partly drawn) [Compound 39] displayed a DC50 of 1 to 10 nM.

The compound `C[C@@H]1CN(CCOCCNc2cccc3c2C(=O)N(C2CCC(=O)NC2=O)C3=O)CCN1c1ccc(Nc2cc(-c3ccnc(N4CCn5c(cc6c5CC(C)(C)C6)C4=O)c3CO)cn(C)c2=O)nc1` (stereo partly drawn) [Compound 40] yielded a DC50 of under 1 nM.

In turn, `C[C@@H]1CN(CCOCCOCCOCCNc2cccc3c2C(=O)N(C2CCC(=O)NC2=O)C3=O)CCN1c1ccc(Nc2cc(-c3ccnc(N4CCn5c(cc6c5CC(C)(C)C6)C4=O)c3CO)cn(C)c2=O)nc1` (stereo partly drawn) [Compound 41] displayed a DC50 of 1 to 10 nM.

Compound `C[C@H]1CN(C(=O)CCOCCN2CCN(CCOCCOCCNc3cccc4c3C(=O)N(C3CCC(=O)NC3=O)C4=O)CC2)CCN1c1ccc(Nc2cc(-c3ccnc(N4CCn5c(cc6c5CC(C)(C)C6)C4=O)c3CO)cn(C)c2=O)nc1` (stereo partly drawn) [Compound 42] yielded a DC50 of 10 to 1000 nM.

The compound `C[C@H]1CN(C(=O)CCOCCCc2cccc3c2CN(C2CCC(=O)NC2=O)C3=O)CCN1c1ccc(Nc2cc(-c3ccnc(N4CCn5c(cc6c5CC(C)(C)C6)C4=O)c3CO)cn(C)c2=O)nc1` (stereo partly drawn) [Compound 43] registered a DC50 of 1 to 10 nM.

The compound `C[C@@H]1CN(C(=O)N(C)CCOCCOCCOCCOCCCc2cccc3c2CN(C2CCC(=O)NC2=O)C3=O)CCN1c1ccc(Nc2cc(-c3ccnc(N4CCn5c(cc6c5CC(C)(C)C6)C4=O)c3CO)cn(C)c2=O)nc1` (stereo partly drawn) [Compound 44] had a DC50 of 1 to 10 nM.

In the case of `C[C@H]1CN(C(=O)N(C)CCOCCOCCOCCOCCOCCCc2cccc3c2CN(C2CCC(=O)NC2=O)C3=O)CCN1c1ccc(Nc2cc(-c3ccnc(N4CCn5c(cc6c5CC(C)(C)C6)C4=O)c3CO)cn(C)c2=O)nc1` (stereo partly drawn) [Compound 45], the DC50 fell in the range of 1 to 10 nM.

`C[C@@H]1CN(C(=O)NCCCCCc2cccc3c2CN(C2CCC(=O)NC2=O)C3=O)CCN1c1ccc(Nc2cc(-c3ccnc(N4CCn5c(cc6c5CC(C)(C)C6)C4=O)c3CO)cn(C)c2=O)nc1` (stereo partly drawn) [Compound 46] came in with a DC50 of 1 to 10 nM.

With `C[C@H]1CN(C(=O)NCCOCCOCCOCCCc2cccc3c2CN(C2CCC(=O)NC2=O)C3=O)CCN1c1ccc(Nc2cc(-c3ccnc(N4CCn5c(cc6c5CC(C)(C)C6)C4=O)c3CO)cn(C)c2=O)nc1` (stereo partly drawn) [Compound 47], the DC50 lay in the range of 1 to 10 nM.

`C[C@@H]1CN(C(=O)NCCCCCCOCCCc2cccc3c2CN(C2CCC(=O)NC2=O)C3=O)CCN1c1ccc(Nc2cc(-c3ccnc(N4CCn5c(cc6c5CC(C)(C)C6)C4=O)c3CO)cn(C)c2=O)nc1` (stereo partly drawn) [Compound 48] had a DC50 of 1 to 10 nM.

In the case of `C[C@H]1CN(C(=O)CCOCCOCCOCCCc2cccc3c2CN(C2CCC(=O)NC2=O)C3=O)CCN1c1ccc(Nc2cc(-c3ccnc(N4CCn5c(cc6c5CC(C)(C)C6)C4=O)c3CO)cn(C)c2=O)nc1` (stereo partly drawn) [Compound 49], the DC50 lay within 1 to 10 nM.

The compound `C[C@@H]1CN(C(=O)CCOCCOCCOCCOCCOCCNc2cccc3c2C(=O)N(C2CCC(=O)NC2=O)C3=O)CCN1c1ccc(Nc2cc(-c3ccnc(N4CCn5c(cc6c5CC(C)(C)C6)C4=O)c3CO)cn(C)c2=O)nc1` (stereo partly drawn) [Compound 50] had a DC50 of 1 to 10 nM.

For `C[C@H]1CN(C(=O)CCOCCOCCOCCOCCNc2cccc3c2C(=O)N(C2CCC(=O)NC2=O)C3=O)CCN1c1ccc(Nc2cc(-c3ccnc(N4CCn5c(cc6c5CC(C)(C)C6)C4=O)c3CO)cn(C)c2=O)nc1` (stereo partly drawn) [Compound 51], the DC50 is 1 to 10 nM.

Take `C[C@H]1CN(C(=O)CCOCCOCCOCCNc2cccc3c2C(=O)N(C2CCC(=O)NC2=O)C3=O)CCN1c1ccc(Nc2cc(-c3ccnc(N4CCn5c(cc6c5CC(C)(C)C6)C4=O)c3CO)cn(C)c2=O)nc1` (stereo partly drawn) [Compound 52]: the DC50 fell in the range of 1 to 10 nM.

Consider `C[C@H]1CN(C(=O)CCOCCOCCOCCOCCOCCCc2cccc3c2CN(C2CCC(=O)NC2=O)C3=O)CCN1c1ccc(Nc2cc(-c3ccnc(N4CCn5c(cc6c5CC(C)(C)C6)C4=O)c3CO)cn(C)c2=O)nc1` (stereo partly drawn) [Compound 53], for which the DC50 is under 1 nM.

Regarding `C[C@@H]1CN(C(=O)CCOCCOCCOCCOCCCc2cccc3c2CN(C2CCC(=O)NC2=O)C3=O)CCN1c1ccc(Nc2cc(-c3ccnc(N4CCn5c(cc6c5CC(C)(C)C6)C4=O)c3CO)cn(C)c2=O)nc1` (stereo partly drawn) [Compound 54], the DC50 lay in the range of 1 to 10 nM.

Compound `C[C@H]1CN(C(=O)CCOCCNc2cccc3c2C(=O)N(C2CCC(=O)NC2=O)C3=O)CCN1c1ccc(Nc2cc(-c3ccnc(N4CCn5c(cc6c5CC(C)(C)C6)C4=O)c3CO)cn(C)c2=O)nc1` (stereo partly drawn) [Compound 55] had a DC50 of 1 to 10 nM.

As for `C[C@@H]1CN(C(=O)CCCN2CCN(c3ccc4c(c3)C(=O)N(C3CCC(=O)NC3=O)C4=O)CC2)CCN1c1ccc(Nc2cc(-c3ccnc(N4CCn5c(cc6c5CC(C)(C)C6)C4=O)c3CO)cn(C)c2=O)nc1` (stereo partly drawn) [Compound 56], the DC50 lay within 1 to 10 nM.

`C[C@H]1CN(C(=O)CCOCCC(=O)Nc2cccc3c2CN(C2CCC(=O)NC2=O)C3=O)CCN1c1ccc(Nc2cc(-c3ccnc(N4CCn5c(cc6c5CC(C)(C)C6)C4=O)c3CO)cn(C)c2=O)nc1` (stereo partly drawn) [Compound 57] displayed a DC50 of 1 to 10 nM.

`C[C@H]1CN(C(=O)CCCN2CCN(c3cc4c(cc3F)C(=O)N(C3CCC(=O)NC3=O)C4=O)CC2)CCN1c1ccc(Nc2cc(-c3ccnc(N4CCn5c(cc6c5CC(C)(C)C6)C4=O)c3CO)cn(C)c2=O)nc1` (stereo partly drawn) [Compound 58] gave a DC50 of 1 to 10 nM.

Values taken from US20230024442A1, “BIFUNCTIONAL COMPOUNDS FOR GRADING BTK VIA UBIQUITIN PROTEOSOME PATHWAY” (NURIX THERAPEUTICS, INC., priority 2019, published 2023).
